# Reference: patent US5719291A, “Cyclohexane derivatives” (Hoffmann-La Roche Inc., priority 1991, dated 1998)
# Counter-ions that a name gives are not always drawn. Like-named read-outs stand apart in the source and are kept apart here.
# Key:
# Assay type in all cases: cell-based
# A. fumigatus = assay: In vitro antifungal activity, IC80 (Method B); details: Aspergillus fumigatus, 1×10^4 cells/ml, 1-2 days, 27° C., 0.2% agar, read-out: Antifungal activity IC80
# Procedure: (§1) The in vitro antifungal activities of the representative compounds of the present invention shown in Table 1 and Table 2 were measured by determining the minimal inhibitory concentrations (MIC: Method A) or 80% growth inhibition concentration (IC80 : Method B) respectively. MIC is defined as the concentration of an antifungal at which growth of fungi is not observed and IC80 is the concentration where cell turbidity measured at OD630 is reduced by 80%.
# (§2) Antifungal activities were determined by either method A or B (see below) using microtest plates according NCCLS with minor modifications (Galgiani et at., Antimicrob. Agents Chemother. 33, 731 (1989)).
# (§3) (Method B) The medium for yeast was buffered to pH 7.0 with 0.25% K2 HPO4 in Yeast Nitrogen Base (Difco Lab.). For the filamentous fungi, 0.2% of low melting point agar was supplemented to the above medium. Inoculum size was 1×10^4 cells/ml, and incubation was carried out for 1-2 days at 27° C. Fluconazole (Pfizer) was used as reference.
# C. neoformans = assay: In vitro antifungal activity, IC80 (Method B); details: Cryptococcus neoformans, 1-2 days, 27° C., read-out: Antifungal activity IC80
# Procedure: as §1, §2, §3
# Candida albicans [1] = assay: In vitro antifungal activity, IC80 (Method B); details: 1-2 days, 27° C., read-out: Antifungal activity IC80
# Procedure: as §1, §2, §3
# Aspergillus fumigatus = assay: In vitro antifungal activity, MIC (Method A); details: 3 days, 27° C.; for Antifungal activity MIC: 1×10^5 cells/ml, pH 7.0; for MIC: Aspergillus fumigatus, 72 h
# Procedure: (§4) The in vitro antifungal activities of representative compounds of the present invention were measured by determining the minimal inhibitory concentration (MIC), which is the concentration of an antifungal at which no fungal growth can be observed.
# (§5) The MICs were determined by the microbroth dilution procedure according to NCCLS with the following minor modifications (Galgiani et al., Antimicrob. Agents Chemother., 33, 731 (1989). The medium was solidified with 0.2% low melting point agarose and buffered to pH 7.0 with 0.25%: K2 HPO4 in Yeast Nitrogen Base (Difco Lab.). Inoculum size was 1×10^5 cells/ml, and incubation was carried out for 3 days at 27° C. The MICs ([…]) are shown in Table 1. The reference compound is compound (IA) in U.S. Pat. No. 4,952,604. The compounds used are identified by reference to the Examples in which they were prepared.
# as §1, §2
# (§6) (Method A) The medium was solidified with 0.2% low melting point agarose and buffered to pH 7.0 with 0.25% K2 HPO4 in Yeast Nitrogen Base (Difco Lab.). Inoculum size was 1×10^5 cells/ml, and incubation was carried out for 3 days at 27° C. The reference compound is compound (IA) in U.S. Pat. No. 4,952,604.
# Candida albicans [2] = assay: In vitro antifungal activity, MIC (Method A); details: 3 days, 27° C.; for Antifungal activity MIC: 1×10^5 cells/ml, pH 7.0; for MIC: Candida albicans, 72 h
# Procedure: as §4, §5, §1, §2, §6
# Cryptococcus neoformans = assay: In vitro antifungal activity, MIC (Method A); details: 3 days, 27° C.; for Antifungal activity MIC: 1×10^5 cells/ml, pH 7.0; for MIC: Cryptococcus neoformans, 72 h
# Procedure: as §4, §5, §1, §2, §6
# [3] = pH 7, Aspergillus fumigatus CF1003, 1×10^5 cells/ml
# [4] = pH 7, Aspergillus fumigatus CF1004, 1×10^5 cells/ml
# [5] = pH 7, Aspergillus fumigatus CF1023, 1×10^5 cells/ml
# [6] = pH 7, Candida albicans CY1002, 1×10^5 cells/ml
# [7] = pH 7, Candida albicans CY1005, 1×10^5 cells/ml
# [8] = pH 7, Candida albicans CY3003, 1×10^5 cells/ml
# [9] = pH 7, Cryptococcus neoformans CY1057, 1×10^5 cells/ml
# [10] = pH 7, Cryptococcus neoformans CY1059, 1×10^5 cells/ml
# [11] = pH 7, Cryptococcus neoformans CY1061, 1×10^5 cells/ml
Molecule,MIC (Aspergillus fumigatus; [3]),MIC (Aspergillus fumigatus; [4]),MIC (Aspergillus fumigatus; [5]),MIC (Candida albicans [2]; [6]),MIC (Candida albicans [2]; [7]),MIC (Candida albicans [2]; [8]),MIC (Cryptococcus neoformans; [9]),MIC (Cryptococcus neoformans; [10]),MIC (Cryptococcus neoformans; [11]),further results
CO[C@@H]1[C@@H](Cn2cncn2)[C@H](CCc2ccc(C)cc2)CCC1(C)C [Example 74],,,,,,,,,,"IC80 (A. fumigatus; A. fumigatus CF1003): 20 µg/mL; IC80 (A. fumigatus; A. fumigatus CF1004): 24 µg/mL; IC80 (C. neoformans; pH 7, C. neoformans CY1057, 1×10^4 cells/ml): 0.46 µg/mL; IC80 (C. neoformans; pH 7, C. neoformans CY1059, 1×10^4 cells/ml): 3.8 µg/mL; IC80 (Candida albicans [1]; pH 7, Candida albicans CY1002, 1×10^4 cells/ml): 0.076 µg/mL; IC80 (Candida albicans [1]; pH 7, Candida albicans CY1005, 1×10^4 cells/ml): 0.093 µg/mL; IC80 (Candida albicans [1]; pH 7, Candida albicans CY3003, 1×10^4 cells/ml): 0.038 µg/mL"
"(2S,3R,4S,5S)-4-methoxy-5-methyl-2-[(E)-1-nonenyl]tetra-hydro-2H-pyran-3-ylglycinate trifluoroacetic acid salt [Example 24]",,,,,,,,,,Antifungal activity MIC (Aspergillus fumigatus; Aspergillus fumigatus CF1003): 50 µg/mL; Antifungal activity MIC (Aspergillus fumigatus; Aspergillus fumigatus CF1004): 25 µg/mL; Antifungal activity MIC (Aspergillus fumigatus; Aspergillus fumigatus CF1023): 50 µg/mL; Antifungal activity MIC (Candida albicans [2]; Candida albicans CY1002): 50 µg/mL; Antifungal activity MIC (Candida albicans [2]; Candida albicans CY1005): 100 µg/mL; Antifungal activity MIC (Candida albicans [2]; Candida albicans CY3003): 50 µg/mL; Antifungal activity MIC (Cryptococcus neoformans; Cryptococcus neoformans CY1057): 25 µg/mL; Antifungal activity MIC (Cryptococcus neoformans; Cryptococcus neoformans CY1059): 25 µg/mL; Antifungal activity MIC (Cryptococcus neoformans; Cryptococcus neoformans CY1061): 50 µg/mL
"CCCCCCC/C=C\[C@@H]1OC[C@@H](C)[C@H](OC)[C@H]1OC(=O)CN.O=C(O)C(F)(F)F [Example 42, (2S,3R,4S,5R)-4-methoxy-5-methyl-2-[(Z)-1-nonenyl]tetrahydro-2H-pyran-3-yl glycinate trifluoroacetic acid salt]",100 µg/mL,100 µg/mL,50 µg/mL,100 µg/mL,50 µg/mL,50 µg/mL,3.13 µg/mL,3.13 µg/mL,12.5 µg/mL,
"CCCCCCC/C=C\[C@@H]1OC[C@H](C)[C@H](OC)[C@H]1OC(=O)CN [Example 1, (2S,3R,4S,5S)-4-methoxy-5-methyl-2-[(Z)-1-nonenyl]tetrahydro-2H-pyran-3-ylglycinate trifluoro acetic acid salt]",100 µg/mL,200 µg/mL,100 µg/mL,100 µg/mL,100 µg/mL,100 µg/mL,1.56 µg/mL,3.13 µg/mL,6.25 µg/mL,
"(2S,3R,4S,5R)-5-butoxy-4-methoxy-2-[(E)-1-nonenyl]tetra-hydro-2H-pyran-3-ylglycinate trifluoroacetic acid salt [Example 35]",,,,,,,,,,Antifungal activity MIC (Aspergillus fumigatus; Aspergillus fumigatus CF1003): 25 µg/mL; Antifungal activity MIC (Aspergillus fumigatus; Aspergillus fumigatus CF1004): 25 µg/mL; Antifungal activity MIC (Aspergillus fumigatus; Aspergillus fumigatus CF1023): 25 µg/mL; Antifungal activity MIC (Candida albicans [2]; Candida albicans CY1002): 25 µg/mL; Antifungal activity MIC (Candida albicans [2]; Candida albicans CY1005): 25 µg/mL; Antifungal activity MIC (Candida albicans [2]; Candida albicans CY3003): 50 µg/mL; Antifungal activity MIC (Cryptococcus neoformans; Cryptococcus neoformans CY1057): 3.13 µg/mL; Antifungal activity MIC (Cryptococcus neoformans; Cryptococcus neoformans CY1059): 6.25 µg/mL; Antifungal activity MIC (Cryptococcus neoformans; Cryptococcus neoformans CY1061): 12.5 µg/mL
"CCCCCCCCC[C@@H]1OC[C@@H](C)[C@H](OC)[C@@H]1OC(=O)CN.O=C(O)C(F)(F)F [Example 43, (2S,3R,4S,5R)-4-methoxy-5-methyl-2-nonyltetrahydro-2H-pyran-3-yl glycinate trifluoroacetic acid salt]",50 µg/mL,50 µg/mL,25 µg/mL,50 µg/mL,25 µg/mL,25 µg/mL,6.25 µg/mL,6.25 µg/mL,12.5 µg/mL,

# The next lines start with results.
MIC (Aspergillus fumigatus; [3]),MIC (Aspergillus fumigatus; [4]),MIC (Aspergillus fumigatus; [5]),MIC (Candida albicans [2]; [6]),MIC (Candida albicans [2]; [7]),MIC (Candida albicans [2]; [8]),MIC (Cryptococcus neoformans; [9]),MIC (Cryptococcus neoformans; [10]),MIC (Cryptococcus neoformans; [11]),Molecule,further results
6.25 µg/mL,6.25 µg/mL,6.25 µg/mL,200 µg/mL,200 µg/mL,100 µg/mL,6.25 µg/mL,6.25 µg/mL,25 µg/mL,"CCC/C=C/C=C/C=C/[C@@H]1OC[C@H](C)[C@H](OC)[C@H]1OC(=O)CN.O=CO [Example 11, (2S,3R,4S,5S)-4-methoxy-5-methyl-2-[(1E,3E,5E)-1,3,5-nonatrienyl]tetrahydro-2H-pyran-3-yl glycinate formic acid salt]",
25 µg/mL,6.25 µg/mL,6.25 µg/mL,12.5 µg/mL,12.5 µg/mL,12.5 µg/mL,3.13 µg/mL,6.25 µg/mL,6.25 µg/mL,"CCCCCCCCO[C@@H]1CCC(C)(C)C[C@H]1CC(O)CN (relative stereo) [Example 84, 1-[(1S^*,2R^*)-5,5-dimethyl-2-octyloxycyclohexyl]-3-amino-2-propanol]",
50 µg/mL,50 µg/mL,25 µg/mL,50 µg/mL,50 µg/mL,50 µg/mL,3.13 µg/mL,3.13 µg/mL,12.5 µg/mL,"CCCCCCC/C=C/[C@@H]1OC[C@H](C)C[C@H]1OC(=O)CN.O=C(O)C(F)(F)F [Example 28, (2S,3R,5R)-5-methyl-2-[(E)-1-nonenyl]tetrahydro-2H-pyran-3-yl glycinate trifluoroacetic acid salt]",
25 µg/mL,25 µg/mL,25 µg/mL,50 µg/mL,25 µg/mL,25 µg/mL,25 µg/mL,50 µg/mL,50 µg/mL,"CCCCCCC/C=C/[C@@H]1OC[C@H](C)C2(OCCO2)[C@H]1OC(=O)CN.O=C(O)C(F)(F)F [Example 46, (6S,7S,10S)-10-methyl-7-[(E)-1-nonenyl]-1,4,8-trioxaspiro[4,5]decan-6-yl glycinate trifluoroacetic acid salt]",
50 µg/mL,50 µg/mL,50 µg/mL,25 µg/mL,25 µg/mL,50 µg/mL,12.5 µg/mL,12.5 µg/mL,12.5 µg/mL,"CCCCCCCCC[C@@H]1OC[C@H](C)[C@H](OCCC)[C@H]1OC(=O)CN [Example 23, 2S,3R,4S,5S)-5-methyl-2-nonyl-4-propoxytetrahydro-2-H-pyran-3-yl glycinate trifluoroacetic acid salt]",
50 µg/mL,100 µg/mL,50 µg/mL,50 µg/mL,50 µg/mL,50 µg/mL,12.5 µg/mL,12.5 µg/mL,12.5 µg/mL,"CO[C@@H]1[C@H](OC(=O)CN)[C@H](CCCC(C)CCCC(C)C)OC[C@@H]1C.O=C(O)C(F)(F)F (stereo partly drawn) [Example 8, (2S,3R,4S,5S)-2-(4,8-dimethylnonyl)-4-methoxyl-5-methyltetrahydro-2H-pyran-3-yl glycinate trifluoroacetic acid salt]",
25 µg/mL,12.5 µg/mL,25 µg/mL,200 µg/mL,> 200 µg/mL,> 200 µg/mL,1.56 µg/mL,3.13 µg/mL,6.25 µg/mL,"CCC/C=C/C=C/C=C\[C@@H]1OC[C@H](C)[C@H](OC)[C@H]1OC(=O)CN.O=CO [Example 12, (2S,3R,4S,5S)-4-methoxy-5-methyl-2-[(1Z,3E,5E)-1,3,5-nonatrienyl]tetrahydro-2H-pyran-3-yl glycinate formic acid salt]",
